Data reported in patent publication US20240116985A1, “STAPLED PEPTIDES AND METHODS THEREOF” (priority 2020, published 2024).
Values after ≈ are worked out from the molar mass of the structure shown. Where two headings read alike, the source gives them in different places.

What was measured:
[1] = molecular target: T1, full-length beta-Catenin (Uniprot ID P35222) (Homo sapiens, UniProt P35222); experiment: Fluorescence polarization IC50 (beta-catenin / 5FAM-TCF4 10-53 competition); type: binding
T1 construct: 10 nM full-length beta-Catenin (Uniprot ID P35222)
T1 sequence (P35222 1-781): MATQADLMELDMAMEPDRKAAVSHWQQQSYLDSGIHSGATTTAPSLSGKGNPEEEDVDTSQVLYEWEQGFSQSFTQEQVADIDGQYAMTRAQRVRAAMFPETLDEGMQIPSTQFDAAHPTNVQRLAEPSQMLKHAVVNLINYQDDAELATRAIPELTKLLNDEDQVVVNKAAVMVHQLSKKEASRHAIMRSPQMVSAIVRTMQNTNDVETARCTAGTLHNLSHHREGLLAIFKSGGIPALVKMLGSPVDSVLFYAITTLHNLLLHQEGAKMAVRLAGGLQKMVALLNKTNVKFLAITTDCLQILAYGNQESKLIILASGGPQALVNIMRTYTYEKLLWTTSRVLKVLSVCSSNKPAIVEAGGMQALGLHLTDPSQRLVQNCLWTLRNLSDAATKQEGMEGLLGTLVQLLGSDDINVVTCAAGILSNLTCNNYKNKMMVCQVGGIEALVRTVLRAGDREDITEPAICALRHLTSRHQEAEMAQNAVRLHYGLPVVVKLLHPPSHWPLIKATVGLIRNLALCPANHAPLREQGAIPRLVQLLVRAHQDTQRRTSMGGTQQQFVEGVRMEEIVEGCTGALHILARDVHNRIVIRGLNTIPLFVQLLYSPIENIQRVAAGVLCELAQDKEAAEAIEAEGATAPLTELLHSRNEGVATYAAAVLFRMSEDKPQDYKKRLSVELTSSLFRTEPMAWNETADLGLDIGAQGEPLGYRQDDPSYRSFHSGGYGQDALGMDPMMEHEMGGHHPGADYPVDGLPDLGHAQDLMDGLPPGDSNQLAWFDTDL

CHI Log D procedure = type: physicochemical; conditions: for chromatographic logD: pH 7.4, CHI Log D; for CHI Log D: pH 7.4
Solubility in PBS = type: physicochemical
Summary of the method: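 PBS sample ultracentrifuged; supernatant run on HPLC vs. 50 μM peptide in DMSO standard. Solubility = (PBS peak area / DMSO peak area) × 50 uM.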

[2] = molecular target: T2, beta-catenin/TCF4 engagement (Homo sapiens, UniProt P35222); experiment: Nano-BRET target engagement assay (B-cat-Halo & TCF4-Luc in HEK293 cells); type: cell-based; conditions: for inhibition at 10 µM: HEK293, @ 10 uM, read-out: NanoBRET % inh @ 10 uM
T2 construct: expressed in transfected cells; host or cells: HEK293
T2 sequence (P35222 1-781): T1 sequence (P35222 1-781)

Row | Compound | IC50 ([1]; read-out: beta-Catenin FP IC50) [nM] | chromatographic logD (CHI Log D procedure) | Solubility (Solubility in PBS) [µM] | IC50 ([2]; absolute IC50, read-out: NanoBRET Abs IC50) [nM] | IC50 ([1]; fluorescence polarization, read-out: beta-Catenin FP IC50) [nM] | IC50 ([1]; read-out: FP EC50) [nM] | CHI Log D (CHI Log D procedure) | inhibition at 10 µM [2] [%] | Solubility (Solubility in PBS; Solubility (uM)) [µM] | IC50 ([2]; read-out: NanoBRET IC50) [nM] | IC50 ([2]; read-out: NanoBRET Abs IC50) [nM]
1 | CC(=O)N1CCC[C@]12CC=CCCCC1(CCCC=CCCCOC(=O)N3CC[C@@](C(=O)N[C@@H](Cc4ccccc4Cl)C(=O)N[C@@H](Cc4csc5ccccc45)C(=O)N[C@@H](CCC(N)=O)C(N)=O)(C3)NC(=O)[C@H](CC(N)=O)NC(=O)[C@H](Cc3ccccc3)NC(=O)[C@H](C)NC(=O)[C@H](C)NC(=O)[C@H](CC(=O)O)NC(=O)[C@H](CC(=O)O)NC1=O)NC(=O)[C@H](CC1CCCCC1)NC(=O)[C@H](CC(=O)O)NC2=O (stereo partly drawn) [I-1040, Ac-PL3-Asp-Cha-B5-Asp-Asp-Ala-Ala-Phe-Asn-PyrS2-2C1F-BztA-Gln-NH2] | 8 | 2.27 | 50 (≈ 98.6 µg/mL) | 9300 |  |  |  |  |  |  | 
2 | CC(=O)N1CCC[C@]12CC=CCCCC1(CCCC=CCCCCCC[C@@](C)(C(=O)N[C@@H](Cc3ccccc3)C(=O)N[C@@H](Cc3csc4ccccc34)C(=O)N[C@@H](CCC(N)=O)C(N)=O)NC(=O)[C@H](CC(N)=O)NC(=O)[C@H](Cc3ccccc3)NC(=O)[C@H](C)NC(=O)[C@H](C)NC(=O)[C@H](CC(=O)O)NC(=O)[C@H](CC(=O)O)NC1=O)NC(=O)[C@H](C(C)C)NC(=O)[C@H](CC(=O)O)NC2=O (stereo partly drawn) [I-567, Ac-PL3-Asp-Val-B5-Asp-Asp-Ala-Ala-Phe-Asn-S8-Phe-BztA-Gln-NH2] |  |  | 50 (≈ 92.1 µg/mL) |  | 37 | 37 | 2.243 | 8.9 |  |  | 
3 | CC(=O)N1CCC[C@]12CC=CCCCC1(CCCC=CCCCOC(=O)N3CC[C@@](C(=O)N[C@@H](Cc4ccsc4)C(=O)N[C@@H](Cc4csc5ccccc45)C(=O)N[C@@H](CCC(N)=O)C(N)=O)(C3)NC(=O)[C@H](CC(N)=O)NC(=O)[C@H](Cc3ccccc3)NC(=O)[C@H](C)NC(=O)[C@H](C)NC(=O)[C@H]([C@@H](C)O)NC(=O)[C@H](CC(=O)O)NC1=O)NC(=O)[C@H](CC(C)(C)C)NC(=O)[C@H](CC(=O)O)NC2=O (stereo partly drawn) [I-844, Ac-PL3-Asp-Npg-B5-Asp-Thr-Ala-Ala-Phe-Asn-PyrS2-3Thi-BztA-Gln-NH2] | 6 | 2.31 |  |  |  |  |  |  | 35 (≈ 66.6 µg/mL) | 10700 | 
4 | CC(=O)N1CCC[C@]12CC=CCCCC1(CCCC=CCCCOC(=O)N3CC[C@@](C(=O)N[C@@H](Cc4ccccc4Cl)C(=O)N[C@@H](Cc4csc5ccccc45)C(=O)N[C@@H](CCC(N)=O)C(N)=O)(C3)NC(=O)[C@H](CC(N)=O)NC(=O)[C@H](Cc3ccccc3)NC(=O)[C@H](C)NC(=O)[C@H](C)NC(=O)[C@H](CC(=O)O)NC(=O)[C@H](CC(=O)O)NC1=O)NC(=O)[C@H](CC(C)(C)C)NC(=O)[C@H](CC(=O)O)NC2=O (stereo partly drawn) [I-783, Ac-PL3-Asp-Npg-B5-Asp-Asp-Ala-Ala-Phe-Asn-PyrS2-2C1F-BztA-Gln-NH2] | 7 | 2.19 |  |  |  |  |  | 50.9 | 48 (≈ 93.4 µg/mL) | 7500 | 6200
5 | CC(=O)N1CCC[C@]12CC=CCCCC1(CCCC=CCCCCOC(=O)N3CC[C@@](C(=O)N[C@@H](Cc4ccsc4)C(=O)N[C@@H](Cc4csc5ccccc45)C(=O)N[C@@H](CC(N)=O)C(=O)N[C@@H](C)C(N)=O)(C3)NC(=O)[C@H](CC(N)=O)NC(=O)[C@H](Cc3ccccc3)NC(=O)[C@H](C)NC(=O)[C@H](C)NC(=O)[C@H](CC(=O)O)NC(=O)[C@H](CC(=O)O)NC1=O)NC(=O)[C@H](CC(C)(C)C)NC(=O)[C@H](CC(=O)O)NC2=O (stereo partly drawn) [I-829, Ac-PL3-Asp-Npg-B5-Asp-Asp-Ala-Ala-Phe-Asn-PyrS3-3Thi-BztA-Asn-Ala-NH2] | 15 | 2.08 |  |  |  |  |  |  | 34 (≈ 67.6 µg/mL) |  | 30200
6 | CC(=O)N1CCC[C@]12CC=CCCCC1(CCCC=CCCCOC(=O)N3CC[C@@](C(=O)N[C@@H](Cc4csc5ccccc45)C(=O)N[C@@H](Cc4csc5ccccc45)C(=O)N[C@@H](Cc4c[nH]cn4)C(N)=O)(C3)NC(=O)[C@H](CC(N)=O)NC(=O)[C@H](Cc3ccccc3)NC(=O)[C@H](C)NC(=O)[C@H](C)NC(=O)[C@H](CC(=O)O)NC(=O)[C@H](CC(=O)O)NC1=O)NC(=O)[C@H](CC(C)(C)C)NC(=O)[C@H](CC(=O)O)NC2=O (stereo partly drawn) [I-793, Ac-PL3-Asp-Npg-B5-Asp-Asp-Ala-Ala-Phe-Asn-PyrS2-BztA-BztA-His-NH2] | 14 | 2.39 | 10 (≈ 19.8 µg/mL) |  |  |  |  |  |  |  | > 20000
7 | CC(=O)N1CCC[C@]12CC=CCCCC1(CCCC=CCCCOC(=O)N3CC[C@@](C(=O)N[C@@H](Cc4ccccc4Cl)C(=O)N[C@@H](Cc4csc5ccccc45)C(=O)N[C@@H](C(N)=O)[C@H](C)O)(C3)NC(=O)[C@H](CO)NC(=O)[C@H](Cc3ccccc3)NC(=O)[C@H](C)NC(=O)[C@H](C)NC(=O)[C@H](CC(=O)O)NC(=O)[C@H](CC(=O)O)NC1=O)NC(=O)[C@H](CC(C)(C)C)NC(=O)[C@H](CC(=O)O)NC2=O (stereo partly drawn) [I-1032, Ac-PL3-Asp-Npg-B5-Asp-Asp-Ala-Ala-Phe-Ser-PyrS2-2C1F-BztA-dThr-NH2] | 15 | 2.43 |  |  |  |  |  |  | 44 (≈ 83.3 µg/mL) |  | 10400
8 | CC(=O)N1CCC[C@]12CC=CCCCC1(CCCC=CCCCOC(=O)N3CC[C@@](C(=O)N[C@@H](Cc4ccccc4C)C(=O)N[C@@H](Cc4csc5ccccc45)C(=O)N[C@@H](Cc4c[nH]cn4)C(N)=O)(C3)NC(=O)[C@H](CC(N)=O)NC(=O)[C@H](Cc3ccccc3)NC(=O)[C@H](C)NC(=O)[C@H](C)NC(=O)[C@H](CC(=O)O)NC(=O)[C@H](CC(=O)O)NC1=O)NC(=O)[C@H](CC(C)(C)C)NC(=O)[C@H](CC(=O)O)NC2=O (stereo partly drawn) [I-782, Ac-PL3-Asp-Npg-B5-Asp-Asp-Ala-Ala-Phe-Asn-PyrS2-2MeF-BztA-His-NH2] | 6 | 2.21 |  |  |  |  |  |  | 38 (≈ 73.5 µg/mL) |  | 12200
9 | CC(=O)N1CCC[C@]12CC=CCCCC1(CCCC=CCCCCOC(=O)N3CC[C@@](C(=O)N[C@@H](Cc4ccsc4)C(=O)N[C@@H](Cc4csc5ccccc45)C(=O)N[C@@H](Cc4c[nH]cn4)C(N)=O)(C3)NC(=O)[C@H](CC(N)=O)NC(=O)[C@H](Cc3ccccc3)NC(=O)[C@H](C)NC(=O)[C@H](C)NC(=O)[C@H](CC(=O)O)NC(=O)[C@H](CC(=O)O)NC1=O)NC(=O)[C@H](CC(C)(C)C)NC(=O)[C@H](CC(=O)O)NC2=O (stereo partly drawn) [I-775, Ac-PL3-Asp-Npg-B5-Asp-Asp-Ala-Ala-Phe-Asn-PyrS3-3Thi-BztA-His-NH2] | 6 |  | 47 (≈ 91.2 µg/mL) |  |  | 7 | 2.092 | 5.1 |  |  | > 20000
10 | CC(=O)N1CCC[C@]12CC=CCCCC1(CCCC=CCCCOC(=O)N3CC[C@@](C(=O)N[C@@H](Cc4ccsc4)C(=O)N[C@@H](Cc4csc5ccccc45)C(=O)N[C@@H](CC(N)=O)C(=O)N[C@H](C)C(N)=O)(C3)NC(=O)[C@H](CC(N)=O)NC(=O)[C@H](Cc3ccccc3)NC(=O)[C@H](C)NC(=O)[C@H](C)NC(=O)[C@H](CC(=O)O)NC(=O)[C@H](CC(=O)O)NC1=O)NC(=O)[C@H](CC(C)(C)C)NC(=O)[C@H](CC(=O)O)NC2=O (stereo partly drawn) [I-824, Ac-PL3-Asp-Npg-B5-Asp-Asp-Ala-Ala-Phe-Asn-PyrS2-3Thi-BztA-Asn-dAla-NH2] | 7 | 2.06 |  |  |  |  |  |  | 36 (≈ 71.1 µg/mL) |  | 14700
11 | CC(=O)N1CCC[C@]12CC=CCCCC1(CCCC=CCCCOC(=O)N3CC[C@@](C(=O)N[C@@H](Cc4ccccc4Cl)C(=O)N[C@@H](Cc4csc5ccccc45)C(=O)N[C@@H](CCC(N)=O)C(N)=O)(C3)NC(=O)[C@H](CC3CCCCC3)NC(=O)[C@H](Cc3ccccc3)NC(=O)[C@H](C)NC(=O)[C@H](C)NC(=O)[C@H](CC(=O)O)NC(=O)[C@H](CC(=O)O)NC1=O)NC(=O)[C@H](CC1CCCCC1)NC(=O)[C@H](CC(=O)O)NC2=O (stereo partly drawn) [I-1107, Ac-PL3-Asp-Cha-B5-Asp-Asp-Ala-Ala-Phe-Cha-PyrS2-2C1F-BztA-Gln-NH2] | 18 | 2.64 | 10 (≈ 20.1 µg/mL) |  |  |  |  |  |  |  | 11800
12 | COc1cccc(C[C@@H]2NC(=O)[C@H](C)NC(=O)[C@H](C)NC(=O)[C@H](CC(=O)O)NC(=O)[C@H](CC(=O)O)NC(=O)C3(CCCC=CCCCOC(=O)N4CC[C@@](C(=O)N[C@@H](Cc5ccccc5Cl)C(=O)N[C@@H](Cc5csc6ccccc56)C(=O)N[C@@H](CCC(N)=O)C(N)=O)(C4)NC(=O)[C@H](CC(C)C)NC2=O)CCCC=CC[C@]2(CCCN2C(C)=O)C(=O)N[C@@H](CC(=O)O)C(=O)N[C@@H](CC(C)(C)C)C(=O)N3)c1 (stereo partly drawn) [I-1121, Ac-PL3-Asp-Npg-B5-Asp-Asp-Ala-Ala-3OMeF-Leu-PyrS2-2C1F-BztA-Gln-NH2] | 18 | 2.31 |  |  |  |  |  |  | 41 (≈ 81 µg/mL) |  | 9200
